Source: patent US20110008304A1, “USE OF CELLS TO FACILITATE TARGETED DELIVERY OF NANOPARTICLE THERAPIES” (KANSAS STATE UNIVERSITY RESEARCH FOUNDATION, priority 2007, published 2011)
Entries after “also recorded” stand apart in the source; their conditions may differ.

Assays:
[1] = test system: MDA-MB-231 breast tumor cell line; assay: NCI 60 human tumor cell lines, SRB protein assay, MDA-MB-231; type: cell-based; details: SRB protein assay after 2 days, read-out: GI50 (growth inhibition at 50%)
Description: (§1) An analog of AQ10, AQ9 (NSC 727286), has been evaluated by NCI's 60 human tumor cell lines using the SRB protein assay to estimate cell growth and viability after 2 days. […] AQ10 is less cytotoxic than AQ9 in L1210 and HL60 cell lines (Table 1).
(§2) Similarly TT compounds such as TT24 were synthesized from TT2 and evaluated for their antitumor activities (Hua et al. 2004. Tetrandedron 60:10155-63, Hua et al. […], Hua et al. 2006. Anticancer Agents Med. Chem. 6:303-18, Wang et al. 2002. Cancer Lett. 188:73-83). Selective bromination of TT2 with N-bromosuccinimide (NBS) in DMF followed by addition of allylmethylamine and removal of the allyl protecting group with Pd(PPh3)4 afforded TT24. TT24 (NSC 727284-K), has been evaluated by NCI's 60 human tumor cell lines using the SRB protein assay to estimate cell growth and viability after 2 days.

SR = assay: NCI 60 human tumor cell lines, SRB protein assay, SR; type: cell-based; details: SRB protein assay after 2 days, read-out: GI50 (growth inhibition at 50%)
Description: as §1

K562 = assay: NCI 60 human tumor cell lines, SRB protein assay, K562; type: cell-based; details: K562, SRB protein assay after 2 days; read-out: GI50 (growth inhibition at 50%)
Description: as §1

MOLT-4 = assay: NCI 60 human tumor cell lines, SRB protein assay, MOLT-4; type: cell-based; details: MOLT-4, SRB protein assay after 2 days; read-out: GI50 (growth inhibition at 50%)
Description: as §1

LL/2 tumor cells = assay: MTS:PMS viability assay at day 4 in vitro, LL/2; type: cell-based; details: MTS:PMS assay at day 4 in vitro, means ± SD, n = 3
SN12 C renal = assay: NCI 60 human tumor cell lines, SRB protein assay, SN12 C; type: cell-based; details: SRB protein assay after 2 days, read-out: GI50 (growth inhibition at 50%)
Description: as §1

L1210 tumor cells = assay: MTS:PMS viability assay at day 4 in vitro, L1210; type: cell-based; details: MTS:PMS assay at day 4 in vitro, means ± SD, n = 3
HL-60 tumor cells = assay: MTS:PMS viability assay at day 4 in vitro, HL-60; type: cell-based; details: MTS:PMS assay at day 4 in vitro, means ± SD, n = 3
HCT-116 colon = assay: NCI 60 human tumor cell lines, SRB protein assay, HCT-116; type: cell-based; details: SRB protein assay after 2 days, read-out: GI50 (growth inhibition at 50%)
Description: as §1

HL-60 = assay: NCI 60 human tumor cell lines, SRB protein assay, HL-60; type: cell-based; details: HL-60, SRB protein assay after 2 days; read-out: GI50 (growth inhibition at 50%)
Description: as §1

[2] = Solubility in water / encapsulation; type: physicochemical
Pan 02 cells = assay: Pan 02 cell viability, MTT assay; type: cell-based, mouse
Description: Cell proliferation evaluation. The number of viable cells was evaluated by the MTT ([…]-2,5-diphenyl-tetrazolium bromide) assay (Roche Diagnostics GmbH, Germany) as well as hemocytometer and trypan blue exclusion analysis. Pan 02 cells were seeded in a 96 well plate. […] After incubation for 48 hrs, the medium was replaced with fresh medium containing 0.5 mg of MTT reagent per ml of medium and incubated for four hours at 37° C. Then, 100 μL of solubilization reagent was added to each well and incubated overnight at 37° C. Absorbance was measured in an ELISA plate reader at 550 nm, with the absorbance at 690 nm to correct for background, and viability was expressed as the percentage of untreated controls. To validate the MTT assay, trypan blue exclusion and hemocytometer counting assay was performed in parallel. All experiments were done in duplicate and were performed three times.
Statistical analysis. All values are expressed as means ±SE. Values of untreated cells were taken as […]. Statistical analysis of all Pan 02 cell proliferation assays were analyzed using repeated measures of ANOVA. […] Statistical significance was considered if P<0.05.

TK+UCMS cells = assay: Cell number of TK+UCMS cells exposed to pro-drug; type: cell-based; details: dose range of 0 μM to 1600 μM
Description: UCMS cells have been successfully engineered for stable expression of HSV-thymidine kinase. […] Thus, the suicide gene system is effective; after GCV administration to mice bearing tumors into which the UCMS-NG-TH (UCMS cells containing nanogels loaded with therapeutic agents) have trafficked, the NG-TH will be released into the tumor interstitium when the stem cells undergo apoptosis.

[3] = test system: T47D breast tumor cell line; assay: NCI 60 human tumor cell lines, SRB protein assay, T47D; type: cell-based; details: SRB protein assay after 2 days, read-out: GI50 (growth inhibition at 50%)
Description: as §2

NCI/ADR-RES = assay: NCI 60 human tumor cell lines, SRB protein assay, NCI/ADR-RES; type: cell-based; details: NCI/ADR-RES breast, SRB protein assay after 2 days; read-out: GI50 (growth inhibition at 50%)
Description: as §2

L1210 cells = assay: Inhibition of L1210 cells by TT24; type: cell-based
[4] = Anti-cancer effect of drug-loaded nanogels, test not specified; type: cell-based

## O=C1C=CC(=O)c2cc3cc(CBr)ccc3cc21 [AQ9]
[1]
  GI50: 735 nM
SR
  GI50: 37.1 nM
K562
  GI50: 339 nM
MOLT-4
  GI50: < 10 nM
LL/2 tumor cells
  IC50: 680 ± 87 nM
SN12 C renal
  GI50: 379 nM
L1210 tumor cells
  IC50: 26 ± 1 nM
HL-60 tumor cells
  IC50: 79 ± 3 nM
HCT-116 colon
  GI50: 606 nM
HL-60
  GI50: < 10 nM

## O=C1C=CC(=O)c2cc3cc(CO)ccc3cc21 [AQ10, 6-(hydroxymethyl)-1,4-anthracenedione]
[2]
  Solubility in water: insoluble
LL/2 tumor cells; LL/2, 96 h
  IC50: 494 ± 59 nM
Pan 02 cells; MTT assay, 48 hrs, doses of 4.2, 8.4 and 16.8 μM, vs untreated and DMSO treated cells
  Effect of AQ10 dissolved in DMSO on Pan 02 cell viability / growth: significantly attenuated; also recorded: significant effect; also recorded: significantly decreased
Pan 02 cells; comparison of AQ10-nanogel PEG-PEI with AQ10 alone
  Growth attenuation of Pan 02 cells, AQ10 in nanogel PEG-PEI relative to AQ10 alone (in DMSO): three to four times less effective
L1210 tumor cells; Mus musculus, L1210, 96 h
  IC50: 37 ± 2 nM
HL-60 tumor cells; Homo sapiens, HL-60, 96 h
  IC50: 125 ± 7 nM

## Nc1nc(O)c2ncn(COC(CO)CO)c2n1 [Ganciclovir]
TK+UCMS cells
  Cell number of TK+UCMS cells: Decreased cell number

## CNC1=CC(=O)C2=C(C1=O)C1C3=C(C(=O)C(Br)=C(OC)C3=O)C2c2ccccc21 (stereo not shown) [TT24]
[3]
  GI50: 1440 nM
[1]
  GI50: 1410 nM
NCI/ADR-RES
  GI50: 1550 nM
L1210 cells
  IC50: 48 nM

## Triton
[4]
  Anti-cancer / antitumor effect: significantly potentiated the anti-cancer effect
